These results are taken from patent publication US7601702B2, “Dutpase Inhibitors” (Medivir AB, priority 2004, dated 2009).

≈ marks a conversion by molar mass, not a printed value. Structures can show the parent of a compound that is named as a salt. Where two headings read alike, the source gives them in different places.

In one data set the test system is P. falciparum K1. The experiment in a line: Malaria whole cell assay, K1 strain. It is filed as cell-based. The conditions noted are these: Plasmodium falciparum. Here is the method: (§1) Two strains of P. falcipanum are used in this study: The drug sensitive NF54 (an airport strain of unknown origin) and K1 (Thailand, chloroquine and pyrimethamine resistant). The strains are maintained in RPMI-1640 medium with 0.36 mM hypoxanthine supplemented with 25 mM HEPES, 25 mM NaHCO3, neomycin (100 U/ml) and Albumax® (lipid-rich bovine serum albumin) (GIBCO, Grand Island, N.Y.) (5 g/l), together with 5% washed human A+ erythrocytes. All cultures and assays are conducted at 37° C. under an atmosphere of 4% CO2, 3% O2 and 93% N2. Cultures are kept in incubation chambers filled with the gas mixture. Subcultures are diluted to a parasitaemia of 0.1-0.5% and the medium changed daily.
(§2) Antimalarial activity is assessed using an adaptation of the procedures described by Desjardins et al. (Antimicrob. Agents Chemother. 16(6):710-8, 1979), and Matile and Pink (In: Lefkovits, I. and Pernis, B. (Eds.). Immunological Methods. Academic Press, San Diego, pp. 221-234, 1990).
(§3) After use the stocks are kept at −20° C. The compound is further diluted to the appropriate concentration using complete medium without hypoxanthine. […]
(§4) After 48 hours of incubation at 37° C., 0.5 μCi ^3H-hypoxanthine is added to each well. […] The radioactivity is counted using a Betaplate™ liquid scintillation counter (Wallac, Zurich, Switzerland). […] From the sigmoidal inhibition curves IC50 values are calculated. […]

The test system of the next data set is P. falciparum NF54. The experiment in a line: Malaria whole cell assay, NF54 strain. The settings on record: Plasmodium falciparum. It counts as cell-based. Here is the method:
as §1, §2, §3, §4

Data set [1] concerns the target T1, Plasmodium falciparum dUTPase (Plasmodium falciparum, UniProt Q8II92).
T1 construct: made in house; host or cells: E. coli BL21 (DE3)
T1 sequence (Q8II92 1-173): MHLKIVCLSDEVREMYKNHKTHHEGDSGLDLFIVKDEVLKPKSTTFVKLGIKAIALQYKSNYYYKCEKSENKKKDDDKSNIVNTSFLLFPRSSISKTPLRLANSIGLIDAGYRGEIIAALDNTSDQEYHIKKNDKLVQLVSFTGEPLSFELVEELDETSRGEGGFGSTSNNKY
The experiment in a line: Malaria enzyme assay: inhibition of Plasmodium falciparum dUTPase. It counts as biochemical. Here is the method:
Inhibition of Plasmodium falciparum dUTPase
2′-dUTP, was purchased from Pharmacia. MgCl2, BSA, and the pH indicator cresol red were from Sigma. The buffer N,N-bis(2-hydroxyethyl)glycine (BICINE) was obtained from USB (United States Biochemical), Ohio. All the concentrations of nucleotides were calculated spectrophotometrically (HP-8453, Hewlett Packard) at 280 nm, using the extinction coefficient (ε280 nm=1.75 ml mg^−1cm^−1). Other chemicals used in these experiments were of the highest quality available.
Recombinant P. falciparum dUTPase was purified from E. coli BL21 (DE3) cells transformed with pET-PFdut. Pellets from a liter of culture were resuspended in a solution consisting of buffer A (20 mM MES pH 5.5, 50 mM NaCl, 1 mM DTT) plus the protease inhibitors 1 mM PMSF, 20 μg/ml leupeptin and 1 mM benzamidine. Purification was carried out in a cold room (4° C.). The soluble crude extract was obtained by sonication in a Vibra-cell (Sonics and Materials Inc. Danbury, Conn., USA) and centrifugation at 14000×g. The extract was loaded onto a phosphocellulose column (Whatman) pre-equilibrated with buffer A at a flow rate of 1 ml/min. After washing the column with 100 ml of buffer A, elution was performed using a linear NaCl gradient of 50 to 1000 mM. Peak fractions with a low concentration of contaminating protein, as judged by 15% SDS-PAGE gels, were pooled and then loaded and chromatographed on a Superdex 200 column at a flow rate of 0.5 ml/min. The column was equilibrated with buffer B (50 mM Bicine, 1 mM DTT, 10 mM MgCl2). Peak fractions were pooled and concentrated to about 5 mg/ml by ultrafiltration in a Centripep tube (Amicon) and stored at −80° C.
Nucleotide hydrolysis was monitored by mixing enzyme and substrate with a rapid kinetic accessory (Hi-Tech Scientific) attached to a spectrophotometer (Cary 50) and connected to a computer for data acquisition and storage. Protons, released through the hydrolysis of nucleotides, were neutralised by a pH indicator in a weak buffered medium with similar pKa and monitored spectrophotometrically at the absorbance peak of the basic form of the indicator. Absorbance changes were kept within 0.1 units. The indicator/buffer pair used was cresol red/BICINE ([…], pH 8, 573 nm). The measurements were performed at 25° C., and the solutions were previously degassed. Assays contained 30 nM purified recombinant enzyme, 50 μM dUTP, 5 mM MgCl2 and 2.5 mM DTT, 1.25 mg/ml BSA and 100 mM KCl. Indicator absorbance changes corresponding to complete hydrolysis of nucleotides were recorded in the computer, and the kinetic parameters Vmax and Kmapp (or slope) were calculated by fitting the data to the integrated Michaelis-Menten equation (Segel, 1975). [dUMP]/t=Vmax−Kmap/t ln [dUTP]([dUTP]−[dUMP])
Solutions of potential inhibitors were prepared at 10 mg/ml and tested routinely at concentrations of […]. A wider range of concentrations was further tested when necessary for Ki determination. The different apparent Km values attained were plotted against inhibitor concentration and Ki values were obtained according to the following equation: […]

The test system of another data set is Plasmodium falciparum. Kind of data set: Malaria whole cell assay (cell culture). It is filed as cell-based. The settings on record: read-out: ED50 (the source's name). Here is the method:
as §1, §2
After use the stocks are kept at −20° C. The compound is further diluted to the appropriate concentration using complete medium without hypoxanthine.
Assays are performed in sterile 96-well microtiter plates, each well containing 200 μl of parasite culture (0.15% parasitemia, 2.5% hematocrit) with or without serial drug solutions. Seven 2-fold dilutions are used covering a range from 5 μg/ml to 0.078 μg/ml.
After 48 hours of incubation at 37° C., 0.5 μCi ^3H-hypoxanthine is added to each well. Cultures are incubated for a further 24 h before they are harvested onto glass-fiber filters and washed with distilled water. The radioactivity is counted using a Betaplate™ liquid scintillation counter (Wallac, Zurich, Switzerland). […] From the sigmoidal inhibition curves IC50 values are calculated.
K1 strain is used. The compounds are tested at 7 concentrations (5000 to 78 ng/ml). Artemisinin and chloroquine are included as reference drugs.

Setting [2] is: Plasmodium falciparum enzyme, read-out: Ki.

For `COc1ccc(C(NC[C@H]2O[C@@H](n3ccc(=O)[nH]c3=O)CC2O)(c2ccccc2)c2ccccc2)cc1` (stereo partly shown) (as salt: salt) [Example 23, 5′-paraMethoxytritylamino-2′,5′-dideoxyuridine], the melting point (usually the temperature of the solid-liquid transition) is 140 to 142 °C.
On the same count and under the same terms, then `O=c1ccn(C2CC(O)C(CNC(c3ccccc3)(c3ccccc3)c3ccncc3)O2)c(=O)[nH]1` (stereo not shown) [Example 8, 5′-(4-pyridydiphenylmethyl)amino-2′,5′-dideoxyuridine], with 131 to 133 °C.
With `COc1ccc(C(OC[C@H]2O[C@@H](n3ccc(=O)[nH]c3=O)CC2O)(c2ccccc2)c2ccccc2)cc1` (stereo partly shown) [Example 20, 5′-O-paramethoxytrityl-2′-deoxyuridine], the melting point lay in the range of 96 to 97 °C.
Consider `N#Cc1ccc(C(NC[C@H]2O[C@@H](n3ccc(=O)[nH]c3=O)C[C@@H]2O)(c2ccccc2)c2ccccc2)cc1` [Example 22, 5′-[(4-cyanotrityl)amino]-2′,5′-dideoxyuridine], for which the melting point lay in the range of 160 to 163 °C.
The same measure, in the same setting: in the case of `O=c1ccn([C@H]2C[C@H](O)[C@@H](CNC(c3ccccc3)(c3ccccc3)c3ccccc3Cl)O2)c(=O)[nH]1` [Example 24, 5′-[(2-chlorotrityl)amino]2′,5′-dideoxyuridine] it was 129 to 131 °C.
In turn, `O=c1ccn(C2CC(O)C(CNC3(c4ccccc4)c4ccccc4Oc4ccccc43)O2)c(=O)[nH]1` (stereo not shown) [Example 26, 5′-Pixylamino-2′,5′-dideoxyuridine] displayed a melting point of 117 to 119 °C.
In the case of `C[C@@H]1CC[C@H]2[C@@H](C)C(=O)O[C@@H]3O[C@@]4(C)CC[C@@H]1[C@]32OO4` [artemisinin], the 50% inhibitory concentration (IC50) (as a rule, the concentration at which inhibition is half-maximal) in the data set on P. falciparum K1 (K1 strain, read-out: IC50) was 0.8 ng/mL (≈ 2.83 nM); with P. falciparum NF54 (NF54 strain, read-out: IC50), 1.9 ng/mL (≈ 6.73 nM).
On to `CCN(CC)CCCC(C)Nc1ccnc2cc(Cl)ccc12` (stereo not shown) [chloroquine], for which the results for the 50% inhibitory concentration (IC50) in the data set on P. falciparum K1 (K1) and in the data set with P. falciparum NF54 (NF54) were 48 ng/mL (≈ 150 nM) and 2.9 ng/mL (≈ 9.07 nM), respectively.
`O=c1ccn([C@H]2C[C@H](O)[C@@H](CNC(c3ccccc3)(c3ccccc3)c3ccccc3)O2)c(=O)[nH]1` [drawing 55 Ph3CNH, 5′-Tritylamino-2′,5′-dideoxyuridine]: the Ki – broadly, the equilibrium dissociation constant of an inhibitor or competing ligand from its target – in data set [1] (setting [2]) was found to be 0.2 µM. The EC50 in the data set with Plasmodium falciparum worked out at 4.5 µM.
Consider `O=c1ccn([C@H]2C[C@H](O)[C@@H](COC(c3ccccc3)(c3ccccc3)c3ccccc3)O2)c(=O)[nH]1` [drawing 55 Ph3CO, 5′-O-trityl-2′-deoxyuridine], for which the inhibition constant Ki in data set [1] (setting [2]) turned out to be 1.8 µM. Also, the EC50 in the data set on Plasmodium falciparum amounted to 6 µM.
The corresponding values for `CC(C)(C)[Si](OC[C@H]1O[C@@H](n2ccc(=O)[nH]c2=O)C[C@@H]1O)(c1ccccc1)c1ccccc1` [drawing 55 TBDPSO, 5′-O-tert-Butyldiphenylsilyl-2′-deoxyuridine] are 4.2 µM and 6.6 µM.
The corresponding values for `O=c1ccn([C@H]2C[C@H](O)[C@@H](CO[Si](c3ccccc3)(c3ccccc3)c3ccccc3)O2)c(=O)[nH]1` [drawing 55 TPSO, 5′-O-Triphenylsilyl-2′-deoxyuridine] are 2.8 µM and 1.1 µM.
As to `CC(C)(C)[Si](C)(C)OC1CC(n2ccc(=O)[nH]c2=O)OC1COC(c1ccccc1)(c1ccccc1)c1ccccc1` (stereo not shown) [drawing 56 Ph3CO, 1-[4-(tert-Butyl-dimethyl-silanyloxy)-5-trityloxymethyl-tetrahydro-furan-2-yl]-1H pyrimidine-2,4-dione], the Ki in data set [1] came out at 515 µM. Besides, the EC50 in the data set with Plasmodium falciparum came to 1 µM.
Turning to `CC(C)(C)[Si](C)(C)OC1C[C@H](n2ccc(=O)[nH]c2=O)O[C@@H]1CNC(c1ccccc1)(c1ccccc1)c1ccccc1` (stereo partly shown) [drawing 56 Ph3NH, 3′-O-tertbutyldimethylsilyl-5′-Tritylamino-2′,5-dideoxyuridine], the Ki in data set [1] amounted to 313 µM. Also, in the data set with Plasmodium falciparum, the EC50 was 1.8 µM.
`CC(C)(C)[Si](OCC1C=CC(n2ccc(=O)[nH]c2=O)O1)(c1ccccc1)c1ccccc1` (stereo not shown) [drawing 57 TBDPSO, 5′-O-tert-butyldiphenylsilyl-2′,3′-dideoxydidehydrouridine]: the inhibitory constant (Ki) in data set [1] (setting [2]) turned out to be 1.2 µM. Further, the EC50 in the data set on Plasmodium falciparum is 3 µM.
As for `O=c1ccn([C@H]2C=C[C@@H](CO[Si](c3ccccc3)(c3ccccc3)c3ccccc3)O2)c(=O)[nH]1` [drawing 57 TPSO, 5′-Triphenylsilyloxy-2′,3′-dideoxydidehydrouridine], the inhibitory constant (Ki) in data set [1] was determined as 1.3 µM. In addition, in the data set with Plasmodium falciparum, the EC50 stood at 1 µM.
For `O=c1ccn([C@H]2C[C@H](F)[C@@H](COC(c3ccccc3)(c3ccccc3)c3ccccc3)O2)c(=O)[nH]1` [drawing 58 Ph3CO, 3′-Fluoro-5′-O-trityl-2′,3′-dideoxyuridine], the inhibitory constant (Ki) in data set [1] (setting [2]) was 5 µM. The EC50 in the data set with Plasmodium falciparum is 2 µM.
The compound `O=c1ccn([C@H]2C[C@H](F)[C@@H](CNC(c3ccccc3)(c3ccccc3)c3ccccc3)O2)c(=O)[nH]1` [drawing 58 Ph3NH, 3′-Fluoro-5′-tritylamino-2′,3′,5′-trideoxyuridine] yielded a Ki in data set [1] of 12 µM. For the same compound, the EC50 in the data set with Plasmodium falciparum came to 5.3 µM.
The corresponding values for `CC(C)(C)[Si](OC[C@H]1O[C@@H](n2ccc(=O)[nH]c2=O)CC1F)(c1ccccc1)c1ccccc1` (stereo partly shown) [drawing 58 TBDPSO, 3′-Fluoro-5′-O-tert-Butyidiphenylsilyl-2′,3′-dideoxyuridine] are 89 µM and 8.8 µM.
The corresponding values for `O=c1ccn([C@H]2C[C@H](F)[C@@H](CO[Si](c3ccccc3)(c3ccccc3)c3ccccc3)O2)c(=O)[nH]1` [drawing 58 TPSO, 3′-Fluoro-5′-O-triphenylsilyl-2′,3′-dideoxyuridine] are 975 µM and 1 µM.
